Values joined by “and” are separate entries in the source; they are usually repeats but may differ in a detail not shown here. Equal entries are not always repeated. Each block holds one compound with its values, some of them ahead of it.
How the values were obtained:
HEK293 = assay: Anticancer activity against human HEK293 cells assessed as cell growth inhibition incubated for 3 days by MTT assay; assay type: functional, cell-based; conditions: HEK293, 72 h
HT-29 [1] = assay: Anticancer activity against human HT-29 cells assessed as cell growth inhibition incubated for 3 days by MTT assay; assay type: functional, cell-based; conditions: HT-29, 72 h
MCF7 [2] = assay: Anticancer activity against human MCF7 cells assessed as cell growth inhibition incubated for 3 days by MTT assay; assay type: functional, cell-based; conditions: MCF7, 72 h
[3] = Anticancer activity against human AZ-AHR cells assessed as cell growth inhibition incubate for 24 hrs by MTT assay; assay type: functional, cell-based
ASPC1 = assay: Anticancer activity against human ASPC1 cells assessed as cell growth inhibition incubated for 72 hrs by MTT assay; assay type: functional, cell-based; conditions: ASPC1, 72 h
Capan-2 = assay: Anticancer activity against human Capan-2 cells assessed as cell growth inhibition incubated for 72 hrs by MTT assay; assay type: functional, cell-based; conditions: Capan-2, 72 h
BXPC-3 = assay: Anticancer activity against human BXPC-3 cells assessed as cell growth inhibition incubated for 72 hrs by MTT assay; assay type: functional, cell-based; conditions: BXPC-3, 72 h
HCT-116 = assay: Anticancer activity against human HCT-116 cells assessed as cell growth inhibition incubated for 5 days by SRB assay; assay type: functional, cell-based; conditions: HCT-116, 120 h
B16-F10 [4] = assay: Anti cancer activity against mouse B16-F10 cells assessed as cell growth inhibition incubated for 40 hrs by Almar Blue stained fluorescence-based assay; assay type: functional; conditions: B16-F10, 40 h
HT-29 [5] = assay: Anticancer activity against human HT-29 cells assessed as cell growth inhibition incubated for 24 hrs by MTT assay; assay type: functional, cell-based; conditions: ht-29
SK-BR-3 = assay: Anticancer activity against human SK-BR-3 cells assessed as cell growth inhibition incubated for 24 hrs by MTT assay; assay type: functional, cell-based; conditions: SK-BR-3, 24 h
HepG2 = assay: Anticancer activity against human HepG2 cells assessed as cell growth inhibition incubated for 24 hrs by MTT assay; assay type: functional, cell-based; conditions: HepG2, 24 h
U-251 = assay: Anticancer activity against human U-251MG cells assessed as cell growth inhibition by CyQuant assay; assay type: functional, cell-based
MCF7 [6] = assay: Anticancer activity against human MCF7 cells assessed as cell growth inhibition by CyQuant assay; assay type: functional, cell-based
PANC-1 [7] = assay: Anticancer activity against human PANC-1 cells assessed as cell growth inhibition by CyQuant assay; assay type: functional, cell-based
MDA-MB-231 = assay: Anticancer activity against human MDA-MB-231 cells assessed as cell growth inhibition by CyQuant assay; assay type: functional, cell-based
[8] = Cytotoxicity against mouse NIH3T3 cells assessed as cell growth inhibition by CyQuant assay; assay type: toxicity, cell-based
[9] = Anticancer activity against Lung adenocarcinoma cell line assessed as cell growth inhibition measured after 72 hrs by MTT assay; assay type: functional, cell-based; conditions: Lung adenocarcinoma cell line, 72 h
A549 = assay: Anticancer activity against human A549 cells assessed as cell growth inhibition measured after 72 hrs by MTT assay; assay type: functional, cell-based; conditions: Homo sapiens, A549, 72 h
HeLa = assay: Anticancer activity against human HeLa cells assessed as cell growth inhibition measured after 72 hrs by MTT assay; assay type: functional, cell-based; conditions: Homo sapiens, HeLa, 72 h; read-out: IC50
in vitro = conditions: human, CCD-1059Sk cells and MCF7 cells
Description: Selectivity index, ratio of IC50 for cytotoxicity against CCD-1059Sk cells to IC50 for antiproliferative activity against MCF7 cells

[10] = Cytotoxicity activity against human CCD-1059Sk cells assessed as cell growth inhibition incubated for 48 hrs by MTS assay; assay type: toxicity, cell-based
MCF7 [11] = assay: Anticancer activity against human MCF7 cells assessed as cell growth inhibition incubated for 48 hrs by MTS assay; assay type: functional, cell-based; conditions: MCF7, 48 h
B16-F10 [12] = assay: Anti cancer activity against mouse B16-F10 cells assessed as cell growth inhibition incubated for 40 hrs by Almar Blue stained fluorescence-based assay relative to control; assay type: functional
PANC-1 [13] = assay: Anticancer activity against human PANC-1 cells assessed as cell growth inhibition incubated for 48 hrs by SRB assay; assay type: functional; conditions: Homo sapiens, PANC-1, 48 h

SMILES: O=S(=O)(O)Oc1ccc(/C=C/c2cc(O)cc(OS(=O)(=O)O)c2)cc1
- IC50 (HEK293): > 100 µM
- IC50 (HT-29 [1]): 56 µM
- IC50 (MCF7 [2]): 26 µM

- IC50 (HT-29 [1]): 115 µM
- IC50 (MCF7 [2]): 17 µM
SMILES: O=S(=O)(O)Oc1cc(O)cc(/C=C/c2ccc(O)cc2)c1
- IC50 (HEK293): > 100 µM

SMILES: Oc1cc(O)cc(/C=C\c2ccc(O)c(O)c2)c1
- IC50 [3]: 7.8 µM

SMILES: OC[C@H]1O[C@@H](Oc2cc(/C=C/c3ccc(O)cc3)cc(O[C@@H]3O[C@H](CO)[C@@H](O)[C@H](O)[C@H]3O)c2)[C@H](O)[C@@H](O)[C@@H]1O
- IC50 (HEK293): > 100 µM
- IC50 (HT-29 [1]): 24 µM
- IC50 (MCF7 [2]): 72 µM

SMILES: CCCCCCCC(=O)OC[C@H]1O[C@@H](Oc2cc(O)cc(/C=C/c3ccc(O)cc3)c2)[C@H](O)[C@@H](O)[C@@H]1O
- IC50 (HEK293): > 100 µM
- IC50 (HT-29 [1]): 39 µM
- IC50 (MCF7 [2]): 52 µM

- IC50 (ASPC1): 3.23 µM
- IC50 (BXPC-3): 22.5 µM
SMILES: Nc1ccc(/C=C/c2ccc(O)cc2)cc1
- IC50 (Capan-2): 3.03 µM

- IC50 (HCT-116): 0.6 µM
SMILES: Oc1ccccc1/C=N/c1ccccc1O

- IC50 (B16-F10 [4]): 1 µM
SMILES: COc1ccc(/C=C/c2ccc(OC)c(OC)c2)cc1

- IC50 (HT-29 [5]): 44.3 µM and 18.9 µM
- IC50 (SK-BR-3): 11.3 µM
- IC50 (HepG2): 18.9 µM
SMILES: COC(=O)c1cc(/C=C/c2cc(O)cc(O)c2)ccc1O

- IC50 (U-251): 6.7 µM
- IC50 (MCF7 [6]): 10.8 µM
- IC50 (PANC-1 [7]): 18.1 µM
- IC50 (MDA-MB-231): 18.5 µM
SMILES: COc1cc(/C=C/c2ccc(OC(C)=O)cc2)cc(OC)c1
- IC50 [8]: > 20 µM

- IC50 (A549): 26.3 µM
- IC50 (HeLa): 8.25 µM
SMILES: Oc1cc(O)cc(/C=C/c2ccc(OCc3ccccc3)cc2)c1
- IC50 [9]: 9.43 µM

- IC50 (A549): 5.1 µM
- IC50 (HeLa): 5.1 µM
SMILES: CC(C)C(=O)Oc1ccc(/C=C/c2cc(OC(=O)C(C)C)cc(OC(=O)C(C)C)c2)cc1
- IC50 [9]: 5.1 µM

- IC50 (A549): 4.9 µM
- IC50 (HeLa): 4.9 µM
SMILES: CC(C)CC(=O)Oc1ccc(/C=C/c2cc(OC(=O)CC(C)C)cc(OC(=O)CC(C)C)c2)cc1
- IC50 [9]: 4.9 µM

- IC50 (HT-29 [1]): 45 µM
- IC50 (MCF7 [2]): 78 µM
SMILES: COc1cc(/C=C/c2ccc(O[C@@H]3O[C@H](CO)[C@@H](O)[C@H](O)[C@H]3O)cc2)cc(O[C@@H]2O[C@H](CO)[C@@H](O)[C@H](O)[C@H]2O)c1
- IC50 (HEK293): > 100 µM

- IC50 (MCF7 [11]): 19.1 µM
SMILES: COc1ccc(/C=N/NC(=O)/C=C/c2ccc(O)c(OC)c2)cc1
- selectivity ratio (in vitro): 3.9
- IC50 at 48 h [10]: 158 µM

- IC50 (MCF7 [11]): 129 µM
SMILES: COc1cc(/C=C/C(=O)N/N=C/c2ccc(O)c(OC)c2)ccc1O
- selectivity ratio (in vitro): 1.73
- IC50 at 48 h [10]: 74.6 µM

SMILES: COc1ccc(/C=C\c2cc(OC)c(OC)c(OC)c2)cc1
- IC50 (B16-F10 [4]): 1 µM
- inhibition (INH) (B16-F10 [12]): 80%

- GI50 (PANC-1 [13]): 0.064 µM
SMILES: COc1cc(/C=C/c2ccc(NC(=O)CSc3nnc(-c4ccc(C(F)(F)F)cc4)o3)cc2)cc(OC)c1

- GI50 (PANC-1 [13]): 0.064 µM
SMILES: COc1cc(/C=C/c2ccc(NC(=O)CSc3nnc(-c4cnccn4)o3)cc2)cc(OC)c1

- GI50 (PANC-1 [13]): 0.064 µM
SMILES: COc1cc(/C=C/c2ccc(NC(=O)CSc3nnc(-c4c(F)cccc4F)o3)cc2)cc(OC)c1

- IC50 (B16-F10 [4]): 1 µM
SMILES: COc1ccc(/C=C\c2cc(OC)c(OC)c(OC)c2)c(OC)c1

- GI50 (PANC-1 [13]): 0.064 µM
SMILES: COc1cc(/C=C/c2ccc(OC(=O)CSc3nnc(-c4ccccc4F)o3)cc2)cc(OC)c1

- GI50 (PANC-1 [13]): 0.064 µM
SMILES: COc1cc(/C=C/c2ccc(OC(=O)CSc3nnc(-c4ccc(C)cc4)o3)cc2)cc(OC)c1

- GI50 (PANC-1 [13]): 0.064 µM
SMILES: COc1cc(/C=C/c2ccc(NC(=O)CSc3nnc(-c4ccc(C)cc4)o3)cc2)cc(OC)c1

- IC50 (A549): 4.9 µM
- IC50 (HeLa): 6.48 µM
SMILES: O=S(=O)(Oc1ccc(/C=C/c2cc(O)cc(OS(=O)(=O)c3ccccc3)c2)cc1)c1ccccc1
- IC50 [9]: 5.55 µM

From ChEMBL document CHEMBL5233248, “Resveratrol - A comprehensive review of recent advances in anticancer drug design and development” (Eur J Med Chem, 2020)
